Results from PubChem BioAssay AID248 (DTP/NCI, 2004).
“And” between values parts separate entries of the source, which are not always exact repeats. Equal entries are not always repeated. Toxic doses and inconclusive results are not listed. No stated cut-off is given here; in the data, active means T/C of 150% or more; inactive means T/C below 125%.

Test system: L1210 leukemia ip in BDF1 mice, survival T/C
Assay: NCI In Vivo Anticancer Drug Screen. Data for tumor model L1210 Leukemia (intraperitoneal) in B6D2F1 (BDF1) mice
Details: endpoint: mean survival time, higher = longer survival
Procedure, shortened: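 Read-out is survival time, reported as the treated-group measurement over the vehicle-control measurement.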

[1] = dose: 100.0 mg/kg/injection, schedule: Q01DX001 (ip), vehicle: saline
[2] = dose: 200.0 mg/kg/injection, schedule: Q01DX001 (ip), vehicle: saline
[3] = dose: 400.0 mg/kg/injection, schedule: Q01DX001 (ip), vehicle: saline
[4] = dose: 100.0 mg/kg/injection, schedule: Q04DX003 (ip), vehicle: saline with Tween-80
[5] = dose: 200.0 mg/kg/injection, schedule: Q04DX003 (ip), vehicle: saline with Tween-80
[6] = dose: 400.0 mg/kg/injection, schedule: Q04DX003 (ip), vehicle: saline with Tween-80

Measured: T/C

Nc1nc(NCCO)c(NC=O)c(=O)[nH]1
inactive: dose: 100.0 mg/kg/injection, schedule: Q01DX Z (ip), vehicle: methylcellulose (MC) 103 % of control | dose: 128.0 mg/kg/injection, schedule: Q01DX Z (ip), vehicle: methylcellulose (MC) 95 % of control | dose: 222.0 mg/kg/injection, schedule: Q01DX Z (ip), vehicle: methylcellulose (MC) 94 % of control | dose: 333.0 mg/kg/injection, schedule: Q01DX Z (ip), vehicle: methylcellulose (MC) 97 % of control

NNS(=O)(=O)c1ccc([N+](=O)[O-])cc1
inactive: dose: 12.5 mg/kg/injection, schedule: Q01DX009 (ip), vehicle: Klucel (hydroxypropylcellulose) (HPC) 109 % of control | dose: 25.0 mg/kg/injection, schedule: Q01DX009 (ip), vehicle: Klucel (hydroxypropylcellulose) (HPC) 106 % of control | dose: 50.0 mg/kg/injection, schedule: Q01DX009 (ip), vehicle: Klucel (hydroxypropylcellulose) (HPC) 101 % of control

CC(=O)c1sc2sc(C(C)=O)c(NC(=S)Nc3ccccc3Cl)c2c1NC(=S)Nc1ccccc1Cl
inactive: dose: 100.0 mg/kg/injection, schedule: Q01DX009 (ip), vehicle: Klucel (hydroxypropylcellulose) (HPC) 97 % of control | dose: 200.0 mg/kg/injection, schedule: Q01DX009 (ip), vehicle: Klucel (hydroxypropylcellulose) (HPC) 96 % of control | dose: 400.0 mg/kg/injection, schedule: Q01DX009 (ip), vehicle: Klucel (hydroxypropylcellulose) (HPC) 94 % of control

N=c1c(-c2ccccc2)cc2ccccc2n1O
inactive: dose: 75.0 mg/kg/injection, schedule: Q01DX001 (ip), vehicle: other 103 % of control | dose: 150.0 mg/kg/injection, schedule: Q01DX001 (ip), vehicle: other 101 % of control | dose: 300.0 mg/kg/injection, schedule: Q01DX001 (ip), vehicle: other 98 % of control

CCN(CC)CC(=O)NCC(CCCN1CCCCC1)(c1cccc2ccccc12)C(C)C (stereo not drawn)
inactive: dose: 12.5 mg/kg/injection, schedule: Q01DX009 (ip), vehicle: saline 91 % of control | dose: 12.5 mg/kg/injection, schedule: Q04DX003 (ip), vehicle: saline 98 % of control | dose: 25.0 mg/kg/injection, schedule: Q01DX009 (ip), vehicle: saline 90 % of control | dose: 25.0 mg/kg/injection, schedule: Q04DX003 (ip), vehicle: saline 95 % of control | dose: 50.0 mg/kg/injection, schedule: Q01DX009 (ip), vehicle: saline 86 % of control | dose: 50.0 mg/kg/injection, schedule: Q04DX003 (ip), vehicle: saline 96 % of control

COC(=O)[c-]1[c-][c-][c-][c-]1.COC(=O)[c-]1[c-][c-][c-][c-]1.[Fe]
inactive: dose: 12.5 mg/kg/injection, schedule: Q04DX003 (ip), vehicle: Klucel (hydroxypropylcellulose) (HPC) 94 % of control | dose: 25.0 mg/kg/injection, schedule: Q04DX003 (ip), vehicle: Klucel (hydroxypropylcellulose) (HPC) 90 % of control | dose: 50.0 mg/kg/injection, schedule: Q04DX003 (ip), vehicle: Klucel (hydroxypropylcellulose) (HPC) 90 % of control | dose: 75.0 mg/kg/injection, schedule: Q01DX009 (ip), vehicle: Klucel (hydroxypropylcellulose) (HPC) 103 % of control | dose: 115.0 mg/kg/injection, schedule: Q01DX009 (ip), vehicle: Klucel (hydroxypropylcellulose) (HPC) 93 % of control

O=Cc1[nH]c(=S)[nH]c(=O)c1Cc1ccc(Cl)cc1
inactive: [1] 96 % of control | [2] 93 % of control | [3] 96 % of control

c1ccc(N=NNc2ccccc2)cc1
inactive: dose: 6.25 mg/kg/injection, schedule: Q01DX009 (ip), vehicle: saline with Tween-80 100 % of control | dose: 12.5 mg/kg/injection, schedule: Q01DX009 (ip), vehicle: saline with Tween-80 94 % of control | dose: 25.0 mg/kg/injection, schedule: Q01DX009 (ip), vehicle: saline with Tween-80 98 % of control

COc1ccc2c(c1OC)C1(CCN(C)C#N)CCCCC1CC2 (stereo not drawn)
inactive: dose: 100.0 mg/kg/injection, schedule: Q01DX001 (ip), vehicle: Klucel (hydroxypropylcellulose) (HPC) 95 % of control | dose: 200.0 mg/kg/injection, schedule: Q01DX001 (ip), vehicle: Klucel (hydroxypropylcellulose) (HPC) 95 % of control | dose: 400.0 mg/kg/injection, schedule: Q01DX001 (ip), vehicle: Klucel (hydroxypropylcellulose) (HPC) 86 % of control

C=CC12COC(=O)C(=C)C1C1OC(=O)C(=C)C1C(O)C2 (stereo not drawn)
inactive: dose: 2.5 mg/kg/injection, schedule: Q01DX009 (ip), vehicle: saline + alcohol 102 % of control | dose: 4.0 mg/kg/injection, schedule: Q01DX009 (ip), vehicle: saline 104 % of control | dose: 4.0 mg/kg/injection, schedule: Q01DX009 (ip), vehicle: water 103 % of control | dose: 5.0 mg/kg/injection, schedule: Q01DX009 (ip), vehicle: saline + alcohol 110 % of control | dose: 6.0 mg/kg/injection, schedule: Q01DX009 (ip), vehicle: saline 113 % of control | dose: 8.0 mg/kg/injection, schedule: Q01DX009 (ip), vehicle: saline 124 % of control | dose: 8.0 mg/kg/injection, schedule: Q01DX009 (ip), vehicle: water 118 % of control | dose: 10.0 mg/kg/injection, schedule: Q01DX009 (ip), vehicle: saline 111 % of control

NC(CSCc1ccccc1)(CSCc1ccccc1)C(=O)O
inactive: dose: 25.0 mg/kg/injection, schedule: Q01DX009 (ip), vehicle: other 107 % of control | dose: 50.0 mg/kg/injection, schedule: Q01DX009 (ip), vehicle: other 105 % of control | dose: 100.0 mg/kg/injection, schedule: Q01DX009 (ip), vehicle: other 100 % of control | dose: 200.0 mg/kg/injection, schedule: Q01DX009 (ip), vehicle: other 91 % of control | dose: 400.0 mg/kg/injection, schedule: Q01DX009 (ip), vehicle: other 113 % of control

COC(=O)CC1C(=O)C(C)(C(=O)OC)CCC1c1ccc(OC)cc1 (stereo not drawn)
inactive: dose: 100.0 mg/kg/injection, schedule: Q01DX009 (ip), vehicle: saline 96 % of control | dose: 100.0 mg/kg/injection, schedule: Q04DX003 (ip), vehicle: saline 100 % of control | dose: 200.0 mg/kg/injection, schedule: Q01DX009 (ip), vehicle: saline 90 % of control | dose: 200.0 mg/kg/injection, schedule: Q04DX003 (ip), vehicle: saline 94 % of control | dose: 400.0 mg/kg/injection, schedule: Q01DX009 (ip), vehicle: saline 93 % of control | dose: 400.0 mg/kg/injection, schedule: Q04DX003 (ip), vehicle: saline 94 % of control

Nc1cc(=O)[nH]c(O)c1C(=O)O
inactive: [4] 98 % of control and 90 % of control | [5] 97 % of control | [6] 94 % of control

O=C(O)C(Cc1ccc(O)cc1)NC(=O)N(c1ccccc1)c1ccccc1 (stereo not drawn)
inactive: [1] 95 % of control | [2] 103 % of control | [3] 106 % of control

Cn1[nH]nnc1=S
inactive: [4] 97 % of control | [5] 112 % of control

CCCCCCCCCCCCCCCCCCOC(C)OCCCCCCCCCCCCCCCCCC
inactive: [4] 89 % of control | [5] 89 % of control | [6] 87 % of control

O=C(CCCc1ccc(N(CCCl)CCCl)cc1)Nc1ccccc1
inactive: dose: 4.0 mg/kg/injection, schedule: Q12HX018 (ip), vehicle: Klucel (hydroxypropylcellulose) (HPC) 102 % of control | dose: 4.0 mg/kg/injection, schedule: Q12HX018 (ip), vehicle: other 103 % of control | dose: 6.0 mg/kg/injection, schedule: Q12HX018 (ip), vehicle: other 101 % of control | dose: 8.0 mg/kg/injection, schedule: Q12HX018 (ip), vehicle: Klucel (hydroxypropylcellulose) (HPC) 109 % of control | dose: 8.0 mg/kg/injection, schedule: Q12HX018 (ip), vehicle: other 103 % of control | dose: 16.0 mg/kg/injection, schedule: Q12HX018 (ip), vehicle: Klucel (hydroxypropylcellulose) (HPC) 104 % of control

CCCCNC(=O)CCl
inactive: [1] 96 % of control | [2] 113 % of control

O=C(O)c1ccc(Br)cc1.[Ni]
inactive: dose: 25.0 mg/kg/injection, schedule: Q04DX002 (ip), vehicle: gum acacia 100 % of control | dose: 50.0 mg/kg/injection, schedule: Q04DX002 (ip), vehicle: gum acacia 101 % of control
